# Target: T1, P2X7 receptor (Homo sapiens, UniProt Q99572)
# T1 construct: host or cells: THP-1 cells differentiated with LPS and IFN-γ
# T1 sequence (Q99572 1-595): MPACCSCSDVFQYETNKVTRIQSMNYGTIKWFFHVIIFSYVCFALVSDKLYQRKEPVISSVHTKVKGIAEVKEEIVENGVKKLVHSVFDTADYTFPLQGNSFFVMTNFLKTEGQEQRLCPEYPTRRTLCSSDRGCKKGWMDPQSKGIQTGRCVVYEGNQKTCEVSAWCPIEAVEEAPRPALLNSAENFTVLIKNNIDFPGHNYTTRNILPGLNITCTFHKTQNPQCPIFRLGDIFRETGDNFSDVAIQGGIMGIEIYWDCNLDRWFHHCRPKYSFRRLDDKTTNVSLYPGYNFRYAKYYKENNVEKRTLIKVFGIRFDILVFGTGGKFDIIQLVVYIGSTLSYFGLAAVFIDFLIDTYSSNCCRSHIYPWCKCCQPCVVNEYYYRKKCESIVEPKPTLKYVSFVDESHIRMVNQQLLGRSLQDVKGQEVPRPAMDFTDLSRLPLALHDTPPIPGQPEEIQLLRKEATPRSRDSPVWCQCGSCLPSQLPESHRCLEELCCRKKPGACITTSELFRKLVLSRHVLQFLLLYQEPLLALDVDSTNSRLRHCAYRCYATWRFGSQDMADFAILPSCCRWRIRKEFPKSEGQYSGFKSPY
# Assay: IL-1β release assay in differentiated THP-1 cells stimulated with BzATP (Example 9)
# Format: cell-based
# Design: inhibition: dose or concentration left out as unconfirmed
# Conditions: 0.1 μM compound; differentiated THP-1 cells, BzATP 250 uM; '*' class symbols; read-out: IL-1β % Inhib. (asterisk classes, 0.1 μM)
# Method: THP-1 cells (ATCC Cat # 285-IF-100) are plated in 96 well plates at a concentration of 200,000 cells per well and allowed to differentiate in RPMI-1640 media (ATCC Cat # 30-2001) containing 10% FBS, 100 IU/mL penicillin, 100 ug/mL streptomycin, 100 ng/mL LPS and 100 ng/mL IFN-γ for 16 hours. Following differentiation, the cells are treated for an additional 2 hours in RPMI-1640 media containing 100 IU/mL penicillin, 100 ug/mL streptomycin and fresh LPS at 100 ng/mL. The cells are then pretreated for 30 minutes with the compound of interest at the appropriate concentration in RPMI media containing 100 IU/mL penicillin, 100 ug/mL streptomycin. Following the pretreatment 2′,3′-O-(4-benzoylbenzoyl)-adenosine 5′-triphosphate (Sigma Aldrich Cat # B6396) is added to a final concentration of 250 uM and the cells are incubated for an additional 45 minutes. 30 uL of cell supernatant is then collected and IL-1β levels determined via ELISA (R&D systems Cat. # HSLB50) according to manufacturer's recommendations using the Tecan Safire plate reader. Background adjusted IL-1β levels of drug treated and non-treated cells are used to calculate the percent inhibition.
# The compounds set forth in Table 1 were tested for activity in a cellular model as described herein. Specifically, cells were pretreated with differing amounts of the compound under test and released IL-1β determined as in Example 9, above. Measurements were made and IC50 values, presented in Table 2, below, were determined by fitting the data to a four parameter logistic equation using GraphPad Prism software (GraphPad Software, Inc). The equation may be expressed by the following formula: Y=Bottom+(Top−Bottom)/(1+10^((Log EC50−X)*HillSlope)) Where X is the logarithm of concentration, Y is the response and Y starts at Bottom and goes to Top with a sigmoid shape.
row,inhibition at 0.1 µM,SMILES
1,0 to 25%,Cc1cccc(C(=O)Nc2cccc3c(=O)n(CCN4CCOCC4)ccc23)c1 [Compound 1197]
2,26 to 50%,O=C(Nc1cccc2c(=O)n(CC3CCOCC3)ccc12)c1ccc(-c2ccccc2)o1 [Compound 1026]
3,0 to 25%,CC1CCC(C(=O)Nc2cccc3c(=O)n(CC(C)(C)C)ccc23)CC1 (stereo not drawn) [Compound 1047]
4,0 to 25%,COc1cccc(CCC(=O)Nc2cccc3c(=O)n(CCN4CCOCC4)ccc23)c1 [Compound 1041]
5,0 to 25%,COc1ccc(C(=O)Nc2cccc3c(=O)n(CCN4CCOCC4)ccc23)c(C)c1 [Compound 1039]

# Same assay, conditions: 0.1 μM compound; differentiated THP-1 cells, BzATP 250 uM; symbols * to ****; read-out: IL-1β % Inhib. (asterisk symbols: at 0.1 μM)
row,inhibition at 0.1 µM,SMILES
1,0 to 25%,Cc1ccccc1CCC(=O)Nc1cccc2c(=O)n(CC3CCOCC3)ccc12 [Compound 1396]
2,0 to 25%,O=C(Cc1cccc2ccccc12)Nc1cccc2c(=O)n(Cc3cccnc3)ccc12 [Compound 1350]

# Same assay, conditions: 0.3 μM compound; differentiated THP-1 cells, BzATP 250 uM; '+' class symbols; read-out: IL-1β % Inhib. @ 0.3 μM
row,inhibition at 0.3 µM,SMILES
1,0 to 25%,CN(C)CCn1ccc2c(NC(=O)Cc3ccccc3)cccc2c1=O [Compound 1019]
2,0 to 25%,O=C(CCc1ccc2c(c1)OCO2)Nc1cccc2c(=O)n(CC3CCOCC3)ccc12 [Compound 1032]
3,0 to 25%,CCOc1ccc(CC(=O)Nc2cccc3c(=O)n(CC4CCOCC4)ccc23)cc1 [Compound 1106]
4,0 to 25%,COc1ccc(OC)c(CC(=O)Nc2cccc3c(=O)n(CC4CCOCC4)ccc23)c1 [Compound 1100]
5,0 to 25%,Cc1cc(C(=O)Nc2cccc3c(=O)n(CC4CCOCC4)ccc23)ccc1F [Compound 1124]
6,0 to 25%,Cc1cc(C(=O)Nc2cccc3c(=O)n(Cc4cccnc4)ccc23)ccc1Cl [Compound 1081]
7,0 to 25%,O=C(Nc1cccc2c(=O)n(CC3CCOCC3)ccc12)c1ccc2ccccc2c1 [Compound 1098]
8,26 to 50%,O=C(CC1C[C@@H]2CC[C@H]1C2)Nc1cccc2c(=O)n(CC3CCOCC3)ccc12 (stereo partly drawn) [Compound 1115]
9,0 to 25%,"CN(C)CCn1ccc2c(NC(=O)c3ccccc3)cccc2c1=O [Compound 1006, N-[2-(2-Dimethylamino-ethyl)-1-oxo-1,2-dihydro-isoquinolin-5-yl]-benzamide]"
10,0 to 25%,CCOc1cccc(C(=O)Nc2cccc3c(=O)n(CC4CCOCC4)ccc23)c1 [Compound 1030]
11,0 to 25%,CN(C)CCn1ccc2c(NC(=O)c3cc4ccccc4o3)cccc2c1=O [Compound 1162]
12,0 to 25%,COc1ccc(CCC(=O)Nc2cccc3c(=O)n(CCN(C)C)ccc23)cc1 [Compound 1150]

# Same assay, conditions: 0.3 μM compound; differentiated THP-1 cells, BzATP 250 uM; symbols + to ++++; read-out: IL-1β % Inhib. @ 0.3 μM
row,SMILES,inhibition at 0.3 µM
1,Cc1c(Cl)cccc1C(=O)Nc1cccc2c(=O)n(CCN3CCOCC3)ccc12 [Compound 1227],0 to 25%
2,COc1ccc(CC(=O)Nc2cccc3c(=O)n(CCN4CCOCC4)ccc23)c(OC)c1 [Compound 1230],0 to 25%
3,Cc1cc(C)cc(CC(=O)Nc2cccc3c(=O)n(CCN4CCOCC4)ccc23)c1 [Compound 1228],0 to 25%
4,"CC(=O)OCCn1ccc2c(NC(=O)Cc3ccc(Cl)c(C(F)(F)F)c3)cccc2c1=O [Compound 1380, Acetic acid 2-{5-[2-(4-chloro-3-trifluoromethyl-phenyl)-acetylamino]-1-oxo-1H-isoquinolin-2-yl}-ethyl ester]",≥ 76%
5,Cc1c(Cl)cccc1C(=O)Nc1cccc2c(=O)n(CC(C)(C)C)ccc12 [Compound 1275],0 to 25%
6,Cc1cccc(C(=O)Nc2cccc3c(=O)n(CCN4CCOCC4)ccc23)c1Cl [Compound 1239],0 to 25%
7,O=C(Cc1cccc2ccccc12)Nc1cccc2c(=O)n(CCN3CCOCC3)ccc12 [Compound 1203],0 to 25%
8,O=C(CC1CC2CC[C@H]1C2)Nc1cccc2c(=O)n(CCN3CCOCC3)ccc12 (stereo partly drawn) [Compound 1222],0 to 25%
9,COc1cccc(CC(=O)Nc2cccc3c(=O)n(CCN4CCOCC4)ccc23)c1 [Compound 1209],0 to 25%

# Next, values leading:
row,inhibition at 0.3 µM,SMILES
1,0 to 25%,Cn1ccc2c(NC(=O)Cc3ccccc3F)cccc2c1=O [Compound 1294]
2,≥ 76%,CC(=O)OCCn1ccc2c(NC(=O)CCc3cc(C(F)(F)F)ccc3C(F)(F)F)cccc2c1=O [Compound 1374]
3,0 to 25%,CN(C)CCn1ccc2c(NC(=O)CC3(O)CCCCCC3)cccc2c1=O [Compound 1388]
4,0 to 25%,CCOc1ccccc1CC(=O)Nc1cccc2c(=O)n(CC(C)(C)C)ccc12 [Compound 1280]
5,0 to 25%,Cn1ccc2c(NC(=O)Cc3ccc4c(c3)OCO4)cccc2c1=O [Compound 1301]
6,26 to 50%,COc1cccc(CC(=O)Nc2cccc3c(=O)n(C)ccc23)c1 [Compound 1297]
7,26 to 50%,O=C(Cc1ccc2c(c1)OCO2)Nc1cccc2c(=O)n(Cc3cccnc3)ccc12 [Compound 1359]
8,0 to 25%,Cc1ccc(CC(=O)Nc2cccc3c(=O)n(Cc4cccnc4)ccc23)cc1 [Compound 1356]

# Same assay, conditions: THP-1; read-out: IL-1β % Inhib.
row,inhibition,SMILES
1,0 to 25%,Cc1cccc(C(=O)Nc2cccc3c(=O)n(CC4CCN(C)CC4)ccc23)c1Cl [Compound 1489]
2,0 to 25%,CCOc1ccc(C(=O)Nc2cccc3c(=O)n(CCCN4CCCC4=O)ccc23)cc1 [Compound 1514]
3,0 to 25%,Cc1cccc(C(=O)Nc2cccc3c(=O)n(Cc4ccc(OC(F)(F)F)cc4)ccc23)c1C [Compound 1563]
4,0 to 25%,COc1cccc(CC(=O)Nc2cccc3c(=O)n(Cc4ccc(OC(F)(F)F)cc4)ccc23)c1 [Compound 1580]
5,0 to 25%,Cc1ccccc1CCC(=O)Nc1cccc2c(=O)n(CCCN3CCCC3=O)ccc12 [Compound 1495]
6,0 to 25%,O=C(CCc1ccccc1Cl)Nc1cccc2c(=O)n(Cc3ccc(OC(F)(F)F)cc3)ccc12 [Compound 1557]
7,0 to 25%,O=C(Nc1cccc2c(=O)n(CC3CCOCC3)ccc12)c1ccc(-c2ccccc2)cc1 [Compound 1408]
8,0 to 25%,COc1ccc(CC(=O)Nc2cccc3c(=O)n(CCCN4CCCC4=O)ccc23)cc1 [Compound 1522]
9,0 to 25%,COc1ccc(C(=O)Nc2cccc3c(=O)n(CC(C)(C)C)ccc23)cc1C [Compound 1418]
10,0 to 25%,C[C@H]1CC[C@H](C(=O)Nc2cccc3c(=O)n(CCCN4CCCC4=O)ccc23)CC1 [Compound 1494]
11,0 to 25%,O=C(Nc1cccc2c(=O)n(Cc3ccc(OC(F)(F)F)cc3)ccc12)c1cc2ccccc2o1 [Compound 1587]
12,26 to 50%,O=C(Cc1ccccc1F)Nc1cccc2c(=O)n(Cc3cccnc3)ccc12 [Compound 1449]
13,0 to 25%,COc1ccccc1CC(=O)Nc1cccc2c(=O)n(CCN(C)C)ccc12 [Compound 1409]
14,0 to 25%,CN1CCC(Cn2ccc3c(NC(=O)Cc4cccc5ccccc45)cccc3c2=O)CC1 [Compound 1470]
15,0 to 25%,Cc1ccccc1CCC(=O)Nc1cccc2c(=O)n(Cc3ccc(OC(F)(F)F)cc3)ccc12 [Compound 1550]
16,0 to 25%,O=C(Nc1cccc2c(=O)n(CCCN3CCCC3=O)ccc12)c1cc2cc(Cl)ccc2o1 [Compound 1543]
17,0 to 25%,CN1CCC(Cn2ccc3c(NC(=O)CCc4ccc(Cl)cc4)cccc3c2=O)CC1 [Compound 1485]
18,0 to 25%,O=C(Nc1cccc2c(=O)n(CCN3CCOCC3)ccc12)c1ccc2ccccc2c1 [Compound 1411]
19,0 to 25%,CCOc1ccc(C(=O)Nc2cccc3c(=O)n(Cc4cccnc4)ccc23)cc1 [Compound 1444]

# Same assay, conditions: THP-1 cells, BzATP-stimulated IL-1β release, four parameter logistic fit
row,SMILES,IC50
1,CN(C)CCn1ccc2c(NC(=O)Cc3ccccc3)cccc2c1=O [Compound 1019],> 1000 nM
2,"CC(=O)OCCn1ccc2c(NC(=O)Cc3ccc(Cl)c(C(F)(F)F)c3)cccc2c1=O [Compound 1380, Acetic acid 2-{5-[2-(4-chloro-3-trifluoromethyl-phenyl)-acetylamino]-1-oxo-1H-isoquinolin-2-yl}-ethyl ester]",5.33 nM
3,"CN(C)CCn1ccc2c(NC(=O)c3ccccc3)cccc2c1=O [Compound 1006, N-[2-(2-Dimethylamino-ethyl)-1-oxo-1,2-dihydro-isoquinolin-5-yl]-benzamide]",99.2 nM

# Further lines, results first:
row,IC50,SMILES
1,40.6 nM,CC(=O)OCCn1ccc2c(NC(=O)CCc3cc(C(F)(F)F)ccc3C(F)(F)F)cccc2c1=O [Compound 1374]
2,> 1000 nM,CN(C)CCn1ccc2c(NC(=O)CC3(O)CCCCCC3)cccc2c1=O [Compound 1388]
